Like-named read-outs stand apart in the source and are kept apart here.
What was measured:
[1] = Pharmacokinetics after intravenous or oral administration to dogs; format: in vivo; conditions: male, beagle, plasma, dog
Description: Example 32: Pharmacokinetics of Compounds After Intravenous or Oral Administration to Male Beagle Dogs
The study design (9 animals, fasted overnight and fed at 4 h post dosing) consists of administrating the drug [IV: 1 mg/kg via cephalic vein injection], [PO: 3 mg/kg and 10 mg/kg via oral gavage] and collecting samples at serial bleeding for plasma at 0.03, 0.08, 0.25, 0.5, 1, 2, 4, 8, 24, 48 and 72 hr. The IV and PO dosing solutions were prepared in 50 mM citrate buffer (pH 4.0) at 0.5 mg/mL, 1.5 mg/mL and 5 mg/mL, respectively. The blood collection was performed as follows: the animals were restrained manually, and approx. 0.5 mL blood/time point was collected from the cephalic vein into pre-cooled K2EDTA tubes. Blood samples were put on wet ice and centrifuged at 4° C. to obtain plasma within 15 minutes of sample collection. All samples were stored at approximately −70° C. until analysis.
Plasma Samples Preparation:
An aliquot of 30 μL sample was added to 100 MeCN containing 200 ng/mL IS (Dexamethasone). The mixture was vortexed for 10 min and centrifuged at 5,800 rpm for 10 min. An aliquot of 30 μL supernatant was added to 60 μL H2O and the mixture was vortexed for 5 min. An aliquot of 4 μL supernatant was injected for LC-MS/MS analysis.
(§1) The sample analysis was performed using UPLC-MS/MS-02 (Triple Quad 4000) under the following conditions: positive ion, ESI, MRM detection using dexamethasone as internal standard. HPLC conditions: mobile phase A: H2O-0.1% FA, mobile phase B: ACN-0.1% FA on ACQUITY UPLC HSS T3 (2.1×50 mm, 1.8 μm) column at 60° C.

[2] = MTD and pharmacokinetics and brain penetration after PO administration; format: in vivo, Male C57BL/6 Mice; conditions: male; for Kp / Kp uu: Mouse; for AUC(0-t): C57BL/6
Description: Example 30: MTD and Pharmacokinetics and Brain Penetration Experiment to Determine Brain and Plasma Concentration of Compounds after PO Administration to Male C57BL/6 Mice
The study was designed with 2 groups (18 animals and 24 animals) consists of administrating the drug [PO-50, 100, 150, 225, 300 mg/kg via oral gavage] and collecting samples at terminal bleeding for plasma, brain and CSF at 0.25, 0.5, 1, 4, 8, and 24 hr. All PO dosing solutions were prepared in 50 mM citrate buffer (pH 4.0).
The blood collection was performed as follows: the animal was restrained manually at the designated time points, approximately 500 μL of blood sample was collected via cardiac puncture vein into EDTA-2K tubes. The whole blood needed to be divided into two parts; one part was placed in the tube containing EDTA-2K for plasma generation and the other was used for the hematology assay, respectively. The blood samples for plasma generation were maintained in wet ice first and centrifuged to obtain plasma (2000 g, 4° C., 5 min) within 15 minutes post sampling. The brain collection was performed as follows: a mid-line incision was made in the animal's scalp and the skin was retracted. Using small bone cutters and rongeurs, the skull overlying the brain was removed. The brain was removed using a spatula and rinsed with cold saline. The brain was placed in screw-top tubes, and then stored at −70° C. until analysis. The CSF collection was performed as follows: a mid line incision was made on the neck. The muscle under the skin was cut to expose the cisterna magna. The cisterna magna was penetrated with the sharp end of one capillary (Burn one end of capillary to make it sharp). The CSF was sucked spontaneously into the capillary.
Plasma Sample Preparation:
An aliquot of 30 μL sample was added with 100 μL MeCN containing 100 ng/mL IS (Dexamethasone). The mixture was vortexed for 10 min and centrifuged at 5800 rpm for 10 min. An aliquot of 40 μL supernatant was added to 40 μL H2O and the mixture was vortexed for 5 min. An aliquot of 2 μL supernatant was injected for LC-MS/MS analysis.
Brain Sample Preparation:
An aliquot of 30 μL brain homogenate (brain:PBS=1:3, w/v) sample was added to 100 μL MeCN containing 100 ng/mL IS (Dexamethasone). The mixture was vortexed for 10 min and centrifuged at 5800 rpm for 10 min. An aliquot of 40 μL supernatant was added to 40 μL H2O and the mixture was vortexed for 5 min. An aliquot of 2 μL supernatant was injected for LC-MS/MS analysis.
An aliquot of 3 μL sample was added to a mixture of 6 CSF, 9 μL MeOH/H2O (1/1), 40 μL MeCN containing 200 ng/mL IS (Dexamethasone), and 116 μL H2O. The mixture was vortexed for 5 min. An aliquot of 4 μL was injected for LC-MS/MS analysis.
as §1, with “performed on” for “performed using”, “H2O-0.1% formic acid,” for “H2O-0.1% FA,”, “B: MeCN-0.1% formic acid on:” for “B: ACN-0.1% FA on”, “μm)” for “μm) column”

[3] = C57BL/6, brain and plasma, single administration, D1-50 mg/kg PO
[4] = C57BL/6, brain, multiple administration, D5-300 mg/kg PO

CN1CCN(c2cccc3nc([C@H]4CCC[C@@H](c5ncccc5Cl)N4)cn23)CC1 (single isomer, unassigned) [Compound I-188]
clearance ([1]; IV: 1 mg/kg): 1.19 L/h/kg | half-life ([1]; IV: 1 mg/kg): 27.3 h | Vd ([1]; IV: 1 mg/kg, read-out: Vss): 39 L/kg | Cmax ([1]; PO: 3 mg/kg): 0.0461 µg/mL | bioavailability ([1]; PO: 3 mg/kg): 65% | half-life ([1]; PO: 3 mg/kg): 27.3 h | Cmax ([1]; PO: 10 mg/kg): 0.28 µg/mL | bioavailability ([1]; PO: 10 mg/kg): 97.8% | half-life ([1]; PO: 10 mg/kg): 23.2 h | AUC ([1]; IV: 1 mg/kg): 0.722 µg·h/mL | AUC ([1]; PO: 3 mg/kg): 1.42 µg·h/mL | AUC ([1]; PO: 10 mg/kg): 7.5 µg·h/mL | Kp [2, 3]: 2.49 | Kp uu [2, 3]: 0.94 | Kp [2, 4]: 5.61 | Kp uu [2, 4]: 2.12 | AUC(0-t) ([2]; Mouse brain, multiple administration, D5-300 mg/kg PO, read-out: AUClast (b)): 430 µg·h/mL | AUC(0-t) ([2]; Mouse brain, single administration, D1-50 mg/kg PO, read-out: AUClast (b)): 58.6 µg·h/mL | AUC(0-t) ([2]; Mouse plasma, multiple administration, D5-300 mg/kg PO, read-out: AUClast (p)): 76.6 µg·h/mL | AUC(0-t) ([2]; Mouse plasma, single administration, D1-50 mg/kg PO, read-out: AUClast (p)): 23.5 µg·h/mL
